Earlier results as cited in patent US20130085177A1, “COSMETIC COMPOSITION BASED ON ELLAGIC ACID OR A DERIVATIVE THEREOF AND ON A PARTICULAR MIXTURE OF SURFACTANTS” (priority 2010, published 2013).

O=c1oc2c(O)c(O)cc3c(=O)oc4c(O)c(O)cc1c4c23 [ellagic acid, 2,3,7,8-tetrahydroxy(1)benzo-pyrano(5,4,3-cde)(1)benzopyran-5,10-dione]
solubility in water and in the solvents and oils commonly used in cosmetic compositions: very low
